Structures are written as SMILES. The source made the active and inactive calls.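 How the source made its calls: active means mean IC50, the dose halving TNF-driven NF-kB light signal, at or below a set limit; inactive means the rest.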

In the assay the test system is HEK-293T NF-kB-Luc, TNFa-induced, luminescence, 14 h. In words: TNFa-driven NF-kB luciferase inhibition, HEK-293T – cell-based, HEK-293T NF-kB-Luc, luminescence, hits from both screens, counter-screen for BCR/TCR NF-kB inhibitor project, dose response (AID 489020).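 Further: TNF-alpha stimulus at 0.1 ng/mL added with the seeded cells; selectivity counterscreen for hits from B- and T-cell receptor NF-kB screens.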 In general terms: The purpose of a counterscreen is to sort out artefacts and off-target activity.
As for `CN(C)c1ccc(-c2n(C)c3ccccc3[n+]2C)cc1`, the IC50 is 6580 nM.

With `Nc1nc(F)nc2c1ncn2[C@@H]1O[C@H](CO)[C@@H](O)[C@H]1O`, the IC50 was 7240 nM.

As to `CC1(c2ccc3ccccc3c2)NC(=O)N(CC(=O)N2CCN(Cc3ccc(C#N)cc3)CC2)C1=O` (stereo not given), the IC50 is 210 nM.

For `CCc1cc2c(Sc3nc4ccccc4s3)ncnc2s1`, the IC50 is 21300 nM (inactive).

`Cc1ccnc(NC(=O)CCCOc2cc(=O)n(C)c3ccccc23)c1`: the IC50 was 5930 nM.

With `C[C@H](NC(=O)c1nc[nH]c1C(=O)N[C@@H](C)C(=O)OCc1ccccc1)C(=O)OCc1ccccc1`, the IC50 was > 80000 nM (inactive).

For `COc1ccc(OC)c(C2C3=C(COC3=O)Nc3cc4c(cc32)OCO4)c1` (stereo not given), the IC50 was > 80000 nM (inactive).

Consider `C#CC(=O)N(c1cc(OC)ccc1OC)C(C(=O)NC1CCCC1)c1cccs1` (stereo not given), for which the IC50 was 3850 nM.

Turning to `CCCCC[n+]1cccc2c3ccccc3ccc21`, the IC50 is 2130 nM.

For `Cc1ccc(NC(=O)COc2ccc(N(C)C(=O)C(C)(C)C)cc2)cc1S(=O)(=O)N1CCCCC1`, the IC50 was 1740 nM.

In the case of `Cn1nc(CC(=O)Nc2ccc3c(c2)OCCO3)c2ccccc2c1=O`, the IC50 was 600 nM.

In the case of `COc1ccc(CCNc2c(C)c(C)nc3ncnn23)cc1`, the IC50 is 440 nM.

`COc1cc2nc(NC(=O)c3ccccc3)sc(=O)c2cc1OC`: the IC50 was > 80000 nM (inactive).

In the case of `CCCCCCn1ccc(=N)cc1`, the IC50 is 13100 nM.

For `CCOc1cc(S(=O)(=O)NCc2ccncc2)ccc1Cl`, the IC50 is below 160 nM.

Turning to `OCCCNc1nccc(-c2cc(Nc3cccc(Cl)c3)ncn2)n1`, the IC50 is 550 nM.

With `C#CC(=O)N(c1ccc(OC)c(OC)c1)C(C(=O)NC1CCCC1)c1cccs1` (stereo not given), the IC50 is 4770 nM.

Consider `CCn1c(C)cc(C(=O)COC(=O)c2ccccc2[N+](=O)[O-])c1C`, for which the IC50 was below 160 nM.

Take `O=C(Nc1cccc(C(=O)O)c1)Nc1ccc2c(c1)OCO2`: the IC50 was 2170 nM.

`O=C(Nc1nc(-c2ccc(F)c(F)c2)cs1)c1ccc(OCC2CCCO2)cc1` (stereo not given): the IC50 is 1560 nM.

Regarding `OCCCNc1cc(-c2ccnc(Nc3cccc(Cl)c3)n2)ccn1`, the IC50 was 380 nM.

As for `CC(C)(C)c1ccc(C(=O)N2CCCCCC2=O)cc1`, the IC50 is 1780 nM.

In the case of `O=C(O)CSCC(=O)Nc1ccc(C2CCCCC2)cc1`, the IC50 was 470 nM.

Consider `CN=c1scc(-c2ccccc2F)n1/N=C/c1ccc[nH]1`, for which the IC50 was 1210 nM.

For the molecule `c1ccc(-c2ccc(-c3nc(-c4ccccn4)no3)cc2)cc1`, the IC50 is 1690 nM.

In the case of `COc1cc(SC)ccc1C(=O)Nc1nc2ccccc2[nH]1`, the IC50 was 200 nM.

Turning to `CC1CCN(c2nc3ccc(C(=O)O)cc3s2)CC1`, the IC50 is 4090 nM.

Regarding `COC(=O)CCn1nnc(-c2ccc(C(C)C)cc2)n1`, the IC50 was 270 nM.

`COc1cc(NC(=O)COc2cc(O)c3c(c2)OC(C)(C)CC3=O)cc(OC)c1OC`: the IC50 was 380 nM.

Consider `C[n+]1c(-c2ccccc2)c2cc(N)ccc2c2ccc(N)cc21`, for which the IC50 is 8250 nM.

For `Cc1cc(Cl)c(S(=O)(=O)N2CCN(c3ccc(F)cc3)CC2)cc1OCC(=O)NC1CCCCC1`, the IC50 was below 160 nM.

As for `COc1cccc2c1C(=O)c1c(O)c3c(c(O)c1C2=O)C[C@@](O)(C(=O)CO)C[C@@H]3O[C@H]1C[C@H](N)[C@@H](O)[C@H](C)O1`, the IC50 is > 80000 nM (inactive).

Regarding `COc1cccc2c1C(=O)c1c(O)c3c(c(O)c1C2=O)C[C@@](O)(C(=O)CO)C[C@@H]3O[C@H]1C[C@H](N)[C@H](O)[C@H](C)O1`, the IC50 is 26900 nM (inactive).

As to `Cc1sc2ncnc(N3CCN(CCOc4ccc(Cl)cc4)CC3)c2c1C`, the IC50 was below 160 nM.

Take `O=C(CN1C(=O)c2ccccc2S1(=O)=O)c1ccc2c(c1)OCCO2`: the IC50 is 200 nM.

For the molecule `C[C@@H]1C[C@@H]2O[C@H]2/C=C\C=C\C(=O)Cc2c(Cl)c(O)cc(O)c2C(=O)O1`, the IC50 was 7670 nM.

For `N#Cc1c(NC(=O)CSc2ncn[nH]2)sc2c1CCCC2`, the IC50 was 610 nM.

With `COc1cccc2c1C(CO)N1C(C#N)C3CC(C(=O)O)C(C1C2)N3C` (stereo not given), the IC50 was below 160 nM.

In the case of `COc1ccc(CN(C)c2ccc(S(=O)(=O)N3CCN(C)CC3)cc2[N+](=O)[O-])cc1OC`, the IC50 is below 160 nM.

As for `COCCn1c(C)cc(C2=NNC(=NC3CC3)SC2)c1C`, the IC50 is 330 nM.

As to `Cc1cc(CSc2ccccc2)ccc1NC(=O)c1ccc(CN2CCOCC2)cc1`, the IC50 is 260 nM.

Turning to `N=c1c2c(-c3ccccc3)c(-c3ccccc3)n(Cc3ccccc3)c2ncn1CCCn1ccnc1`, the IC50 was 6970 nM.

For `C=C1C(=O)O[C@@H]2C[C@@H](C)[C@@H]3C=CC(=O)[C@@]3(C)[C@@H](O)[C@H]12`, the IC50 is > 80000 nM (inactive).

As to `Nc1nc(Cl)nc2c1ncn2C1CC(O)C(CO)O1` (stereo not given), the IC50 is > 80000 nM (inactive).

As for `CCCCCCCCNc1ncnc2ccccc12`, the IC50 is below 160 nM.

Regarding `Cc1cc([N+](=O)[O-])nn1Cc1ccccc1F`, the IC50 was > 80000 nM (inactive).

On to `N#Cc1c(NC(=O)CSc2ncn[nH]2)sc2c1CCCCC2`, for which the IC50 was 180 nM.

For the molecule `CC(C)c1ccc(-c2nnn(CCC(=O)O)n2)cc1`, the IC50 is 380 nM.

Take `NC1=NC[C@H](Cc2ccc(O)cc2)N1CCCCC1CCCCC1`: the IC50 was 12900 nM.

With `CN(C)c1cc[n+](CC(=O)c2ccc(-c3ccccc3)cc2)cc1`, the IC50 is 3960 nM.

Turning to `COc1ccc(CNc2ncc(-c3ccc(F)cc3)n2C)c2ccccc12`, the IC50 was 17800 nM.

Take `Cn1nc(CC(=O)Nc2ccc3c(c2)CCC3)c2ccccc2c1=O`: the IC50 was 220 nM.

Take `CCN1/C(=C/c2ccc3cc(C)ccc3[n+]2CC)Sc2ccccc21`: the IC50 is 320 nM.

Consider `Cc1ccc(C(=O)Nc2cccc(C(F)(F)F)c2)cc1NC(=O)c1ccno1`, for which the IC50 was > 80000 nM (inactive).

With `COc1ccc(CCNc2ncnc3sc(C)cc23)cc1OC`, the IC50 was below 160 nM.

In the case of `O=C(Nc1ccc(Cl)cc1)Nc1cccc(C(=O)O)c1`, the IC50 was 10600 nM.

On to `C=CCn1c(C)cc(C(=O)CN2C(=O)c3ccccc3S2(=O)=O)c1C`, for which the IC50 is 170 nM.

For the molecule `Cn1nc(C(C)(C)C)cc1C(=O)NCc1ccc(N2CCCC2=O)cc1`, the IC50 was 2010 nM.

With `COc1cc([N+](=O)[O-])cc(/C=N/NC(=O)c2ccc(NC(=O)c3ccc(C)cc3)cc2)c1O`, the IC50 is 22500 nM (inactive).

In the case of `C=CC(=O)Nc1ccc(Nc2nc(NC3CCC(N(C)C)CC3)nc3c2ncn3C(C)C)cc1` (stereo not given), the IC50 was 410 nM.

Take `CCCCCCCCn1ccc(=N)cc1`: the IC50 is 10800 nM.

In the case of `O=C(NCCc1ccccc1)c1ccc2c(c1)OCCCO2`, the IC50 was 900 nM.

For the molecule `CCC(C)(C)c1ccc(OCCCC[n+]2ccc(C)cc2)c(C(C)(C)CC)c1`, the IC50 is 8160 nM.

Take `CC1CCc2c(sc(NC(=O)CSc3ncn[nH]3)c2C#N)C1` (stereo not given): the IC50 was 610 nM.

In the case of `CC1CCCN(c2ccc([N+](=O)[O-])cc2C(=O)c2ccccc2)C1` (stereo not given), the IC50 was 10100 nM.

Take `CCCCCCCCCn1ccc(=N)cc1`: the IC50 is 510 nM.

Consider `CCCCCn1c(=O)[nH]c2cc(C(=O)N3CCN(Cc4ccc5c(c4)OCO5)CC3)ccc2c1=O`, for which the IC50 was below 160 nM.

Take `COc1ccc(-c2c[n+]3c(n2-c2ccc(C)cc2)CCCCC3)cc1`: the IC50 is 1620 nM.

With `CC(=O)OC(C)(C)/C=C/C(=O)[C@](C)(O)C1[C@H](O)C[C@@]2(C)C3CC=C4C(C[C@H](O)C(=O)C4(C)C)[C@]3(C)C(=O)C[C@]12C` (stereo not given in full), the IC50 was 11300 nM.

For the molecule `C#CC(=O)N(c1ccc(OC)cc1OC)C(C(=O)NC1CCCC1)c1cccs1` (stereo not given), the IC50 is 4970 nM.

Take `Cc1nn(C(C)(C)C)c(C)c1/C=N/OC(=O)Nc1ccc(Cl)cc1`: the IC50 is below 160 nM.

For `CCCCCc1ccc(OCCCC[n+]2cccc(C)c2)c(CCCCC)c1`, the IC50 is 6070 nM.

For `Cn1nccc1C(=O)NC1CCCc2c1cnn2-c1ccccc1F` (stereo not given), the IC50 was below 160 nM.

Take `Nc1ncnc2c1ccn2[C@@H]1O[C@H](CO)[C@@H](O)[C@H]1O`: the IC50 was 7420 nM.

`Cc1ccc(C(=O)CN2C(=O)c3ccccc3S2(=O)=O)cc1`: the IC50 is 1890 nM.

With `N=c1ccn2c(n1)O[C@H]1[C@@H](CO)[C@H](O)O[C@H]12`, the IC50 is > 80000 nM (inactive).

As for `CCOc1ccc(/C=C2\SC(=S)N(CCC(=O)O)C2=O)cc1`, the IC50 is 34200 nM (inactive).

On to `O=C(CSc1nnnn1C1CC2CCC1C2)Nc1ccnc2ccccc12` (stereo not given), for which the IC50 was below 160 nM.

As to `O=C(CCl)N1CCCC1c1ccc2c(c1)OCCO2` (stereo not given), the IC50 is 9330 nM.

As to `Nc1nc(Cl)nc2c1ncn2[C@H]1C[C@H](O)[C@@H](CO)O1`, the IC50 is 18400 nM.

For the molecule `O=C(/C=C/c1ccccc1)Nc1cccc(C(=O)O)c1`, the IC50 was 2590 nM.

Regarding `CCCCCCCCCCOC(=O)Cn1c(COc2ccccc2OC)[n+](C)c2ccccc21`, the IC50 was 3080 nM.

For the molecule `CCOc1ccc(S(=O)(=O)NCc2ccncc2)cc1`, the IC50 was 210 nM.

In the case of `O=C(Nc1ccc([N+](=O)[O-])cc1)C(=O)Nc1cccc(C(=O)O)c1`, the IC50 was 4300 nM.

For `COc1ccc(-c2cc3nc(C)n(N)c(=O)c3s2)cc1`, the IC50 is 870 nM.

With `N=c1c2c(n(Cc3ccc(Br)cc3)c3c1CCC3)CCCC2`, the IC50 is 4300 nM.

`C=C1C(=O)O[C@@H]2C[C@@H](C)[C@@H]3C=CC(=O)[C@@]3(C)[C@@H](OC(C)=O)[C@H]12`: the IC50 was > 80000 nM (inactive).

On to `COc1cc(CSc2nnnn2-c2ccc(C)cc2)cc(OC)c1OC`, for which the IC50 is 470 nM.

Regarding `CCn1c(C)nc2cc(-c3nc4n(n3)Cc3ccccc3-4)ccc21`, the IC50 was 240 nM.

In the case of `Cc1ccc(-c2csc(NC(=O)C3CCN(S(=O)(=O)c4cccs4)CC3)n2)cc1`, the IC50 is 2140 nM.

Consider `COc1ccc(-c2nc(-c3ccccn3)no2)cc1`, for which the IC50 was 2000 nM.

`CC(C)(O)c1[nH]c2ccc(C#N)cc2c1C(C)(C)O`: the IC50 is 65800 nM (inactive).

Turning to `CCCCCNC(=O)c1ccc2c(=O)n(CC3CCCO3)c(=O)[nH]c2c1` (stereo not given), the IC50 is > 80000 nM (inactive).

On to `CCCCCCn1c2c(c(=N)c3c1CCC3)CCC2`, for which the IC50 was 950 nM.

For the molecule `O=C(CCl)N=c1sccn1Cc1ccc(Cl)cc1Cl`, the IC50 is 21000 nM (inactive).

As usually defined, the IC50 is the concentration at which inhibition is half-maximal.

These data come from PubChem BioAssay AID489020 (Sanford-Burnham Center for Chemical Genomics, 2010).
